Measured values as given in patent US7893299B2, “Interleukin-1 and tumor necrosis factor-αmodulators; syntheses of such modulators and methods of using such modulators” (Nereus Pharmaceuticals, Inc., priority 2005, dated 2011).
Like-named read-outs stand apart in the source and are kept apart here.

Assays:
[1] = test system: MDA-MB-231 (Breast); test: 48 hr cytotoxicity, MDA-MB-231; assay type: cell-based, human
Experimental: B16-F10 (ATCC; CRL-6475), DU 145 (ATCC; HTB-81), HEK293 (ATCC; CRL-1573), HT-29 (ATCC; HTB-38), LoVo (ATCC; CCL-229), MDA-MB-231 (ATCC; HTB-26), MIA PaCa-2 (ATCC; CRL-1420), NCI-H292 (ATCC; CRL-1848), OVCAR-3 (ATCC, HTB-161), PANC-1 (ATCC; CRL-1469), PC-3 (ATCC; CRL-1435), RPMI 8226 (ATCC; CCL-155) and U266 (ATCC; TIB-196) are maintained in appropriate culture media. The cells are cultured in an incubator at 37° C. in 5% CO2 and 95% humidified air.
For cell growth inhibition assays, B16-F10, DU 145, HEK293, HT-29, LoVo, MDA-MB-231, MIA PaCa-2, NCI-H292, OVCAR-3, PANC-1, PC-3, RPMI 8226 and U266 cells are seeded at 1.25×10^3, 5×10^3, 1.5×10^4, 5×10^3, 5×10^3, 1×10^4, 2×10^3, 4×10^3, 1×10^4, 7.5×10^3, 5×10^3, 2×10^4, 2.5×10^4 cells/well respectively in 90 μl complete media into Corning 3904 black-walled, clear-bottom tissue culture plates. 20 mM stock solutions of compounds of Formula II, IIA, and IIB are prepared in 100% DMSO, aliquoted and stored at −80° C. Compounds of Formula II, IIA, and IIB are serially diluted and added in triplicate to the test wells resulting in final concentrations ranging from of 20 μM to 0.2 pM. […]
Following 48 hours of drug exposure, 10 μl of 0.2 mg/ml resazurin (obtained from Sigma-Aldrich Chemical Co.) in Mg^2+, Ca^2+ free phosphate buffered saline is added to each well and the plates are returned to the incubator for 3-6 hours. Since living cells metabolize Resazurin, the fluorescence of the reduction product of Resazurin is measured using a Fusion microplate fluorometer (Packard Bioscience) with λex=535 nm and λem=590 nm filters. […]
The cytotoxicity assays were performed by seeding individual cell lines at appropriate density in the 96 well flat-bottomed plates and allowed to attach for 24 hours at 37° C., 5% CO2 and 95% humidified air (RPMI 8226 and U266 cells were plated in 96 well plates on the day of compound addition). […] Cell viability was assessed 48 hours later by measuring the fluorescence of the reduction product of Resazurin by a Fusion microplate fluorometer (PerkinElmer) with λex=535 nm and λem=590 nm filters. […]

[2] = test system: CCD-27sk (human normal skin fibroblast); test: 48 hr cytotoxicity, CCD-27sk; assay type: cell-based; settings: 48 hr drug exposure
Experimental: Human colon adenocarcinoma HT-29 (ATCC# HTB-38), prostate adenocarcinoma PC-3 (ATCC# CRL-1435), breast adenocarcinoma MDA-MB231 (ATCC# HTB-26), Multiple Myeloma RPMI 8226 (ATCC# CCL-155) and U266 (ATCC # TIB-196) cell lines and human normal fibroblast CCD-27sk (ATCC# CRL-1475) were all purchased from ATCC (Manassas, Va.). The cells were maintained in their respective ATCC recommended culture media at 37° C., 5% CO2 and 95% humidified air.
The cytotoxicity assays were performed by seeding individual cell lines at appropriate density in the 96 well flat-bottomed plates and allowed to attach for 24 hours at 37° C., 5% CO2 and 95% humidified air (RPMI 8226 and U266 cells were plated in 96 well plates on the day of compound addition). Serially diluted NPI-1387 was added in triplicate to cells at concentrations ranging from 160 nM to 20 μM. Final concentration of 0.25% (v/v) DMSO was used as the vehicle control. Cell viability was assessed 48 hours later by measuring the fluorescence of the reduction product of Resazurin by a Fusion microplate fluorometer (PerkinElmer) with λex=535 nm and λem=590 nm filters. The IC50 values (the drug concentration at which 50% of the maximal observed cytotoxicity is established) were calculated in XLFit 3.0 or XLFit 4.0 (ID Business Solutions Ltd) using a sigmoidal dose response model.

[3] = test system: bortezomib-resistant DHL-4 lymphoma cells; test: viability of bortezomib-resistant DHL-4 lymphoma cells; assay type: cell-based; settings: 48 hours; 0, 12, 25 and 50 uM
Experimental: Two cell-based assays were treated with NPI-1387 for 48 hours at concentrations of 0, 12, 25 and 50 uM. Both Bcl-2-overexpressing MM.1S cells and bortezomib-resistant DHL-4 lymphoma cells were used and the percentage of viable cells of each was recorded. […] (See FIG. 67).

[4] = test system: IκBα and p38 MAP kinase phosphorylation; test: LPS- or TNF-α-induced phosphorylation of IκBα and p38 MAP kinase in RPMI 8226 cells; assay type: cell-based; settings: 13 μM
Experimental: One ml/well of 2×10^6/ml RPMI 8226 cells (#CCL-155C, American Type Culture Collection) were seeded in 6-well plate in LGM-3 medium and cultured for overnight at 37° C., 5% CO2 and 95% humidified air. Formula (IIB-A1) was added to RPMI 8226 cells at the final concentration of 13 μM for 1 hr. DMSO was used as a control. Cells were then either stimulated by LPS (50 ng/ml) or by TNF-α (10 ng/ml) for various length of time. At the end of each period of stimulation, cells were harvested by centrifugation and cell pellets were washed once in ice-cold 1× Dulbecco's Phosphate buffered Saline (DPBS). To prepare samples for SDS-PAGE, cells were lysed in RIPA buffer (50 mM Tris-HCl, pH7.4, 0.9% NaCl, 1% Triton X-100, 0.25% Na-deoxycholate, 1 mM EDTA, 2 mM Na3VO4 and 1× protease inhibitors cocktail) for 15 min on ice. Cell lysates were cleared by centrifugation at 14,000 rpm, 4° C. for 10 min. Protein concentrations of cell lysates were determined by BCA protein assay kit prior to SDS-PAGE. Equal amount of proteins from various cell lysates were resolved on 10% NuPage MES precast gels and transferred to nitrocellulose membranes according to the manufacturer's instructions. […]

Q: With `C=CC(=O)C1(C)CCCC2(C)C3=CCC(C)(C=C)C[C@@H]3CC[C@H]12` (stereo in doubt) [NPI-1387, 1-[(1S,4aS,7R)-1,4a,7-Trimethyl-7-vinyl-1,2,3,4,4a,6,7,8,8a,9,10,10a-dodecahydro-1-phenanthrenyl]-2-propen-1-one] as the molecule, how does the IC50 [1] read?
A: 15 ± 4 µM

Q: What about the IC50 ([1]; Homo sapiens, MDA-MB-231, 48 h) of the same molecule?
A: 18 ± 2 µM

Q: And the IC50 [2]?
A: ≥ 20 µM

Q: And the “percentage of viable cells” value [3]?
A: marked decrease in the percentage of viable cells

Q: With `C=C[C@@]1(C)CCC=C2[C@H]1CC[C@@H]1[C@](C)(C(=O)NC3CCCCC3)CCC[C@@]21C` [Formula (IIB-A1), N-Cyclohexylamide Derivative of TTL] as the molecule, how does the “phosphorylation levels of IκBα and p38 MAP kinase induced by LPS and TNF-α in RPMI 8226 cells” value [4] read?
A: specifically inhibits LPS-induced phosphorylation of IκBα and p38 MAP kinase

Q: What about the “phosphorylation levels of IκBα and p38 MAP kinase induced by LPS and TNF-α in RPMI 8226 cells” value ([4]; listed as formula (IIB-A1)) of the same molecule?
A: specifically decreases LPS-induced phosphorylation of IκBα and p38 MAP kinase
